For assay [1], the system named is herpes simplex virus 1 (HSV-1). Put plainly: Plaque reduction assay. Format: cell-based. The settings on record: Human alphaherpesvirus 1.
The test system of another assay is ADV7. The settings on record: cited from earlier work.

One may read the IC50 as the concentration at which inhibition is half-maximal. Broadly, the EC50 is the concentration giving half of the maximal effect.

In brackets after ≈: the same amount, converted by molar mass.

On to `Nc1nc2c(ncn2COCCO)c(=O)[nH]1` [acyclovir], for which, in assay [1], half-maximal inhibition (IC50) was put at 0.07 µg/mL (≈ 0.311 µM). Regarding `NC(=O)c1ncn([C@@H]2O[C@H](CO)[C@@H](O)[C@H]2O)n1` [ribavirin], in the assay with ADV7, the EC50 is 27.8 µg/mL (≈ 114 µM).

(Values after paper PMC9557897 (ACS Omega, 2022).)
